Key:
[1] = tested on: C. parapsilosis ATCC 90018; format: cell-based, Candida parapsilosis; details: n = 3
[2] = tested on: Candida parapsilosis ATCC 90018; format: cell-based; details: pH 7.4
[3] = tested on: bacteria; details: cited from earlier work
[4] = tested on: HaCaT keratinocytes

## GHHPHGHHPHGHHPHGHHPH [GHH20, H-rich control peptide derived from histidine-rich glycoprotein]
[1]
  antimicrobial activity in RDA at low pH versus normal pH: showed enhanced activity at low pH
  antimicrobial activity in RDA with versus without Zn2+: significantly enhanced
[2]
  antimicrobial activity (viable count) with Zn2+: dose-dependent killing
  antimicrobial activity (viable count) without Zn2+: showed no antimicrobial activity

## AHHAHAAHHAHAAHHAHAAHHAHA [AHH24, previously described H-rich control peptide]
[1]
  antimicrobial activity in RDA at low pH versus normal pH: showed enhanced activity at low pH
  antimicrobial activity in RDA with versus without Zn2+: significantly enhanced
[2]
  antimicrobial activity (viable count) with Zn2+: dose-dependent killing
  antimicrobial activity (viable count) without Zn2+: showed no antimicrobial activity

## GKRKKKGKGLGKKRDPCLRKYK [GKR22]
[3]
  antibacterial activity in physiological buffers and plasma: retain antibacterial activity in physiological buffers as well as in plasma

## HKHGHGHGKHKNKGKKNGKH [HKH20, kininogen-derived antimicrobial peptide]
[3]
  antibacterial activity in physiological buffers and plasma: retain antibacterial activity in physiological buffers as well as in plasma

## LL-37: classical human antimicrobial cathelicidin peptide, benchmark
[4]
  cell permeabilization (LDH release): less active
